From US11903917B2, “MEK-inhibitor for the treatment of viral and bacterial infections” (priority 2017, dated 2024)
pEC50: −log10 of the molar value. Read-outs that look alike come from different tables or passages of the source.

Tests used:
S. aureus = test: Resistance development during 17 days of constant treatment; type: cell-based, Staphylococcus aureus; settings: 24 h cycles repeated for 17 days
S. aureus 6850 [1] = test: MIC of antibiotics (MIC test stripes) after over-night treatment of bacteria with PD0184264; type: cell-based, Staphylococcus aureus; settings: for MIC: read-out: Minimal inhibitory concentration (MIC)
S. aureus USA300 = test: as above; type: cell-based, Staphylococcus aureus; settings: for MIC: Staphylococcus aureus, read-out: Minimal inhibitory concentration (MIC)
[2] = Pharmacokinetics, drug in plasma after i.v. or per os application; type: in vivo, NMRI mice
Protocol: Blood was collected at 15 min, 30 min, 1 h, 2 h, 4 h, 6 h, 8 h and 24 h (test day 2) after administration and plasma was analysed for the presence of the drug. […] Blood was collected at 15 min, 30 min, 1 h, 2 h, 4 h, 6 h, 8 h and 24 h (test day 2) after administration and plasma was analysed for the presence of the drug. Each data point represents the mean value of three plasma samples. Graphpad Prism 7 software was used to illustrate both figures.
34.88 mg PD-0184264 were dissolved in 0.075 ml DMSO and further diluted with 0.225 ml Cremophor EL/2.7 ml PBS. […] 81.0 mg PD-0184264 were dissolved in 0.2 ml DMSO/0.6 ml Cremophor EL/3.2 ml PBS.
Eight week old male NMRI mice (Charles River Laboratories, Germany) with a body weight of 23.9-36.5 g at administration were used for pharmacokinetic studies. The animals were normally fed. Drinking water was available ad libitum.
Experiments were performed at LPT GmbH (Hamburg, Germany). Sufficient whole blood—taken under isoflurane anaesthesia—was collected to obtain at least 2×100 μl Li-Heparin plasma of 3 animals per group and time-point at the following times: 0 (predose), 15 min, 30 min, 1 h, 2 h, 4 h, 6 h, 8 h and 24 h (test day 2) after administration. The whole blood samples were instantly cooled using an Iso-Therm-Rack system (Eppendorf AG, Germany) until centrifugation within 0.5 hours after withdrawal. Immediately after centrifugation, the samples were stored at −20° C. until further analysis. Plasma analysis was performed using standard procedures at Prolytic GmbH (Frankfurt, Germany).
Drugs were either administrated using a single dosing on test day 1 by oral gavage or by Intravenous bolus injection into a tail vein. The Injection speed was 15 s/dose with an administration volume of 200 μl.

[3] = system: MRSA strain S. aureus (USA300); test: Cell-free culture bacterial growth (OD600); settings: 50 μM, monitored for 360 minutes, vs solvent DMSO
Protocol: Bacterial growth was monitored for 360 minutes.
MRSA bacteria were incubated with different concentrations of the MEK inhibitor ranging from 0-100 μM and bacterial growth was monitored six hours after cultivation.

S. aureus 6850 [4] = test: Over-night treated culture, bacterial titers (CFU/ml) and OD600; type: cell-based, Staphylococcus aureus; settings: for effect on bacterial titers (CFU/ml): over night treatment, S. aureus 6850, vs solvent
[5] = system: influenza A virus strain RB1 [A/Regensburg/D6/09 (H1N1 pdm09)]; test: Progeny virus inhibition assay in A549 cells; type: cell-based
A549 cells = settings: read-out: CC50 value; Haasbach et al. 2017; cited from earlier work
[6] = system: influenza A virus strain RB1 [A/Regensburg/D6/09 (H1N1 pdm09)]; settings: against RB1, Haasbach et al. 2017; cited from earlier work
S. aureus 6850 [7] = type: cell-based, Staphylococcus aureus
MRSA strain USA300 = test: Over-night treated culture, bacterial titers (CFU/ml) and OD600; type: cell-based, Staphylococcus aureus
[8] = Staphylococcus aureus, 6850, S. aureus 6850, culture treated over night with 20 μM PD0184264
[9] = Staphylococcus aureus, 6850, S. aureus 6850, untreated (solvent) culture
[10] = USA300, S. aureus USA300, culture treated over night with PD0184264
[11] = USA300, S. aureus USA300, untreated (solvent) culture
[12] = S. aureus 6850, culture treated over night with 20 μM PD0184264
[13] = S. aureus 6850, untreated (solvent) culture
[14] = S. aureus USA300, culture treated over night with PD0184264
[15] = S. aureus USA300, untreated (solvent) culture

CC[C@H]1OC(=O)[C@H](C)[C@@H](O[C@H]2C[C@@](C)(OC)[C@@H](O)[C@H](C)O2)[C@H](C)[C@@H](O[C@@H]2O[C@H](C)C[C@H](N(C)C)[C@H]2O)[C@](C)(O)C[C@@H](C)C(=O)[C@H](C)[C@@H](O)[C@]1(C)O [Erythromycin]
resistance development in S. aureus (S. aureus): readily develop resistances

O=C(O)c1cn(C2CC2)c2cc(N3CCNCC3)c(F)cc2c1=O [Ciprofloxacin]
MIC (S. aureus 6850 [1]; [8]): 0.12 to 0.25 µg/mL | MIC (S. aureus 6850 [1]; [9]): 0.25 µg/mL | MIC (S. aureus USA300; [10]): 4 to 8 µg/mL | MIC (S. aureus USA300; [11]): 8 µg/mL

C[C@@H](O)[C@H]1C(=O)N2C(C(=O)O)=C(S[C@@H]3CN[C@H](C(=O)N(C)C)C3)[C@H](C)[C@H]12 [Meropenem]
MIC (S. aureus 6850 [1]; [8]): 0.03 µg/mL | MIC (S. aureus 6850 [1]; [9]): 0.06 µg/mL | MIC (S. aureus USA300; [10]): 0.06 µg/mL | MIC (S. aureus USA300; [11]): 0.12 to 0.25 µg/mL

O=C(NOCC1CC1)c1ccc(F)c(F)c1Nc1ccc(I)cc1Cl [CI-1040, 2-(2-chloro-4-iodophenylamino)-N-(cyclopropylmethoxy)-3,4-difluoro benzamide, reference compound]
drug in plasma at eight hours ([2]; 75 mg/kg i.v. application): almost no drug was detected | drug in plasma at eight hours ([2]; 150 mg/kg per os application): almost no drug was detected | bacterial growth (OD600) [3]: slightly inhibited | effect on bacterial titers (CFU/ml) (S. aureus 6850 [4]): effective | reduction of virus titer [5]: 96.78±0.65% | CC50 (A549 cells): > 312 µM | pEC50 [6]: 7.59 | intracellular bacterial titers (S. aureus 6850 [7]): no changes in intracellular bacterial load

Gentamicin
resistance development in S. aureus (S. aureus): resistance development occurred during the first week of treatment | reduction in bacterial titers (S. aureus 6850 [4]; 0.5 μg/ml, over night, S. aureus 6850): no reduction in bacterial titers | bacterial growth (S. aureus 6850 [4]; concentrations higher than 1 μg/ml, over night, S. aureus 6850): strongly inhibited | reduction in bacterial titers (MRSA strain USA300; 0.5 μg/ml, over night, MRSA USA300): no reduction in bacterial titers | bacterial growth (MRSA strain USA300; concentrations higher than 1 μg/ml, over night, MRSA USA300): strongly inhibited | Minimal inhibitory concentration (MIC) (S. aureus 6850 [1]; [12]): 0.12 µg/mL | Minimal inhibitory concentration (MIC) (S. aureus 6850 [1]; [13]): 2 µg/mL | Minimal inhibitory concentration (MIC) (S. aureus USA300; [14]): 0.12 µg/mL | Minimal inhibitory concentration (MIC) (S. aureus USA300; [15]): 1 µg/mL

CC(=O)NC[C@H]1CN(c2ccc(N3CCOCC3)c(F)c2)C(=O)O1 [Linezolid]
MIC (S. aureus 6850 [1]; [8]): 1 µg/mL | MIC (S. aureus 6850 [1]; [9]): 2 µg/mL | MIC (S. aureus USA300; [10]): 1 µg/mL | MIC (S. aureus USA300; [11]): 2 µg/mL

N#CC(=C(/N)Sc1ccccc1N)/C(C#N)=C(\N)Sc1ccccc1N [U0126, reference compound]
effect on bacterial titers (CFU/ml) (S. aureus 6850 [4]): minor reduction in bacterial titers | effect on bacterial titers (CFU/ml) (MRSA strain USA300; over night treatment, MRSA USA300, vs solvent): minor reduction in bacterial titers

Penicillin
Minimal inhibitory concentration (MIC) (S. aureus 6850 [1]; [12]): 0.25 to 0.5 µg/mL | Minimal inhibitory concentration (MIC) (S. aureus 6850 [1]; [13]): 16 µg/mL | Minimal inhibitory concentration (MIC) (S. aureus USA300; [14]): 8 µg/mL | Minimal inhibitory concentration (MIC) (S. aureus USA300; [15]): >256 µg/mL
